# Experimental data as given in patent US9937235B2, “Lipidated peptides as anti-obesity agents” (USTAV ORGANICKE CHEMIE A BIOCHEMIE AKADEMIE VED CR, V.V.I, priority 2012, dated 2018).
# Where a SMILES comes first, the peptide text is derived from it. The star is where a group is joined. Myristoyl = CCCCCCCCCCCCCC(=O)*
# Legend:
# [1] = system: fasted C57BL/6 mice; assay: Food intake in fasted mice after SC administration; format: in vivo, mouse; conditions: fasted C57BL/6 mice, 5 mg/kg SC, 45 min
# How it was run: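 Male C57BL/6 mice, food-deprived 17 h, received saline, PrRP or lipidated analogs either SC at 1-10 mg/kg or ICV into the third ventricle at 4 nmol/mouse.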
# [2] = system: Rhesus monkey; format: in vivo; conditions: single SC 1.0 mg/kg or 2.0 mg/kg, overnight fasted, between 1-6 hours, vs saline
# Method: Food intake (amount of pellets consumed) was measured in Rhesus monkey (n=4) after a single subcutaneous administration of myristoylated human PrRP20 (analog no. 55).
# The study was conducted on overnight fasted animals in Meditox breeding facility (Konárovice, Czech Republic). Each animal received a subcutaneous injection of saline, or of analog 55 in a dose of 1.0 mg/kg or 2.0 mg/kg. Test item formulation was prepared in saline solution as a fresh solution, just before dosing. […] Food intake monitoring was performed 2, 4, 8 and 24 hours after single administration. […] While preferred embodiments of the present invention have been shown and described herein, it will be obvious to those skilled in the art that such embodiments are provided by way of example only. Numerous variations, changes, and substitutions will now occur to those skilled in the art without departing from the invention. It should be understood that various alternatives to the embodiments of the invention described herein may be employed in practicing the invention. It is intended that the following claims define the scope of the invention and that methods and structures within the scope of these claims and their equivalents be covered thereby.
compound,measurement,setting,value
CCCCCCCCCCCCCC(=O)N[C@H](C(=O)N1CCC[C@H]1C(=O)N[C@@H](CC(=O)O)C(=O)N[C@H](C(=O)N[C@@H](CC(N)=O)C(=O)N1CCC[C@H]1C(=O)N[C@@H](C)C(=O)N[C@@H](Cc1c[nH]c2ccccc12)C(=O)N[C@@H](Cc1ccc(O)cc1)C(=O)N[C@@H](C)C(=O)N[C@@H](CO)C(=O)N[C@@H](CCCNC(=N)N)C(=O)NCC(=O)N[C@H](C(=O)N[C@@H](CCCNC(=N)N)C(=O)N1CCC[C@H]1C(=O)N[C@H](C(=O)NCC(=O)N[C@@H](CCCNC(=N)N)C(=O)N[C@@H](Cc1ccccc1)C(N)=O)C(C)C)[C@@H](C)CC)[C@@H](C)CC)[C@@H](C)O [Analog 55] (Myristoyl-TPDINPAWYASRGIRPVGRF-NH2),Food intake in mice (5 mg/kg SC) % saline-treated group (45 min),[1],10%
same,Food intake (amount of pellets consumed),[2],Significantly lower food intake
